Columns and labels:
[1] = Clinical observation: topical application, itching and erythema (flushing); type: in vivo, human; conditions: for itching and erythema of skin: 1% in water solution, 4×2 inch patch on inside forearm, one subject
Method: BHB acts on the same pathway that causes flushing in individuals who take high doses of niacin. A topical formulation containing BHB was evaluated to see if it induced itching and erythema. The BHB formulation was compared to a topical niacin formulation.
A 1% BHB in water solution was made and a 1% niacin in water solution was made. Unknown to the subject, the BHB formula was applied in a 4×2 inch patch on the inside left forearm and the niacin formula was applied in a 4×2 in patch on the inside right forearm. The skin was evaluated over a period of time.

[2] = emulsions with more than about 6-7% salt (about 2% elemental strontium)
TLR-4 = TLR-4 (Homo sapiens, UniProt O00206); experiment: Preliminary data in atopic dermatitis: TLR-4
TLR-4, sequence (O00206 24-839, species assumed): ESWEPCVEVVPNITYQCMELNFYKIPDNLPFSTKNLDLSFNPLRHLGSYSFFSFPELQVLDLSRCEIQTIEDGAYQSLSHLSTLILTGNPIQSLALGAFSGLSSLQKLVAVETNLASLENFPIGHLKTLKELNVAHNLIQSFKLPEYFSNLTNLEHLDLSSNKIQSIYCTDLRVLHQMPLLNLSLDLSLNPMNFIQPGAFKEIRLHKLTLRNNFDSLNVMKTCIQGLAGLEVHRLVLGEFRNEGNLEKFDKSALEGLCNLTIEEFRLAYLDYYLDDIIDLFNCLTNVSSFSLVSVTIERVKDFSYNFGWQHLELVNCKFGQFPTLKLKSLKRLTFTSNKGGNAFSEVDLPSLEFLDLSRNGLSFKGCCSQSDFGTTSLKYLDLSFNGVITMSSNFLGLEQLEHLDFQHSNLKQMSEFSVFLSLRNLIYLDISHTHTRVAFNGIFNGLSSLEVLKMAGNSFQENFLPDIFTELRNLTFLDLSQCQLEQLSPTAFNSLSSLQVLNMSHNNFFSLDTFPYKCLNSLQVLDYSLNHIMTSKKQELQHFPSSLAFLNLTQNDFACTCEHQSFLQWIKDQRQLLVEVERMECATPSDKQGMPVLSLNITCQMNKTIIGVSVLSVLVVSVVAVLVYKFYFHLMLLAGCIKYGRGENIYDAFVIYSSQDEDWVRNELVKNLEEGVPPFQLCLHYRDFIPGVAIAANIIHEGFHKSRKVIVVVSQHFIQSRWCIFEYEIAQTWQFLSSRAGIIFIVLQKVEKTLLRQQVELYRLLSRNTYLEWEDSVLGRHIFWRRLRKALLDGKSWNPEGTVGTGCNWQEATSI

IL-17 = molecular target: T1, IL-17 (Homo sapiens, UniProt Q16552); experiment: Preliminary investigations in psoriasis: IL-17
T1 sequence (Q16552 24-155): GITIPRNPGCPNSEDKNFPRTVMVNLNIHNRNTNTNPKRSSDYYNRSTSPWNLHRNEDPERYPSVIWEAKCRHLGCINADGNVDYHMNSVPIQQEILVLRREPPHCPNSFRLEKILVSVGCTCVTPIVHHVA
Excerpt: (§1) Preliminary investigations indicate that strontium can break up the inflammatory/keratinocyte cycle of psoriasis, specifically by blocking the IL-17 and TNF-alpha. By targeting and blocking the two main pathways that activated dendritic cells use to trigger a psoriatic episode, strontium has immense potential as a therapeutic for psoriasis.

HSV1 = experiment: Preliminary investigations: symptoms of HSV1; type: in vivo
Excerpt: Without wishing to be bound by any one theory, it is believed that strontium's ability to block NF-Kappa B contributes to minimizing the symptoms associated with an active infection. As mentioned above, HSV 1 and 2 require the activation of NF-Kappa B for de novo virus synthesis. By blocking NF-Kappa B, strontium is essentially stopping the infection at an early stage.

TNF-alpha = TNF-alpha (Homo sapiens, UniProt P01375); experiment: Preliminary investigations in psoriasis: TNF-alpha
TNF-alpha, sequence (P01375 77-233 limits assumed, species assumed): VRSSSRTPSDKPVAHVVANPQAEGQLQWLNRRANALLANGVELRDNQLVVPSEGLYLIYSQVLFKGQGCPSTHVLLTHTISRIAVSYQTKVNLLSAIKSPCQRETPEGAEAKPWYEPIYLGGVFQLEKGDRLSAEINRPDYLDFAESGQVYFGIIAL
Excerpt: as §1

nociceptor = conditions: cited from earlier work
[3] = Topical application to skin for pain, itch, irritation; type: in vivo; conditions: simple solutions of strontium and water, no penetration enhancer
Excerpt: Without wishing to be bound by any one theory, it is believed that opening ion channels in the presence of strontium, allows greater levels of strontium to enter the nociceptor and shut down or decrease its activity. This is due to (1) strontium having a higher affinity than calcium for flowing into the ion channels and (2) the excessive amount of strontium ions present as compared to the physiological levels of calcium present. Furthermore, cysteine based antioxidants and strontium target different mechanisms to block nociception. The combination results in a synergistic affect
Most skin products are “pH balanced” to help maintain a healthy skin pH. […] While not wishing to be bound by any one theory, it is believed that the application of a low pH formulation on the skin activates acid sensitive ion channels such as ASIC and TRPV1 resulting in the opening of ion channels on the nociceptor. The opening of the ion channels in the presence of strontium allows greater levels of strontium to enter the nociceptor and shut down or decrease it activity. This is due to (1) strontium having a higher affinity than calcium for flowing into the ion channels and (2) the excessive amount of strontium ions present as compared to the physiological levels of calcium present. […]

TCN [4] = experiment: Burning pain from acidic chemical peel (70% glycolic acid) mixed with strontium; type: in vivo; conditions: strontium mixed with 70% glycolic acid, pH 0.6
Method: Nociceptors also have a CaSR that inhibits nociceptor activation when the extracellular concentration of calcium is raised above normal, or if a similar concentration of strontium is administered. […] When strontium is mixed with the acid, burning pain and stinging is suppressed by 80% or more so that any remaining sensory irritation is not bothersome.

[5] = Preliminary investigations: pain of post herpetic neuralgia; type: in vivo
MMP = experiment: Preliminary data in atopic dermatitis: MMP
TCN [6] = conditions: strontium substitutes for calcium; cited from earlier work

## CC(O)CC(=O)O (stereo not drawn) [BHB, beta-hydroxybutyric acid]
[1]
  itching and erythema of skin: did not redden or become itchy
[1]; compared with niacin
  flush/blush response: does not activate

## O=C(O)c1cccnc1 [niacin, nicotinic acid, reference compound]
[1]
  itching and erythema of skin: began to redden and itch

## O.O.O.O.O.O.[Cl-].[Cl-].[Sr+2] [strontium chloride hexahydrate]
[2]
  emulsion stability: tend to be unstable and separate

## O=[N+]([O-])[O-].O=[N+]([O-])[O-].[Sr+2] [strontium nitrate]
[2]
  emulsion stability: tend to be unstable and separate

## [Sr+2] [strontium]
TLR-4
  blocking of TLR-4 activity: can block
IL-17
  blocking of IL-17: blocking
HSV1
  pain, itch, and rash/blister formation associated with HSV1: can reduce and or eliminate
TNF-alpha
  blocking of TNF-alpha: blocking
nociceptor
  ability to induce CICR relative to calcium: over a hundred-fold less active
nociceptor; not told
  concentration reached in the ER, greater than calcium: more than 150%
[3]
  reducing pain and irritation: can be effective
TCN [4]
  suppression of burning pain and stinging: ≥ 80%
[5]
  pain associated with PHN: can reduce or block
MMP
  blocking of MMP activity: can block
TCN [6]
  reduction of amplitude of synchronous neurotransmitter release: more than 90%

From patent publication US12121536B2, “Strontium based compositions and formulations for pain, pruritus, and inflammation” (Galleon Labs LLC, priority 2015, dated 2024)
